In ChEMBL document CHEMBL1201862, “PubChem BioAssay data set” (2004):
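How tested: cells in 96-well plates exposed to compound for 48 hours at five concentrations. GI50 marks 50% less growth.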 Calls of active or inactive are those of the source. No stated cut-off is given here; in the data, active = GI50 up to about 1.1 µM and inactive = higher.

Tests used:
Experiment in all cases: NCI tumour cell line growth inhibition, 48 h
A498 = tested on: A498
A549 = tested on: A549
ACHN = tested on: ACHN
CAKI-1 = tested on: CAKI-1
CCRF-CEM = tested on: CCRF-CEM
COLO 205 = tested on: COLO 205
DLD-1 = tested on: DLD-1
DMS-114 = tested on: DMS-114
DMS-273 = tested on: DMS-273
EKVX = tested on: EKVX
HCC 2998 = tested on: HCC 2998
HCT-15 = tested on: HCT-15
HL-60 = tested on: HL-60
HT-29 = tested on: HT-29
IGROV-1 = tested on: IGROV-1
K562 = tested on: K562
KM-20L2 = tested on: KM-20L2
KM12 = tested on: KM12
LOX IMVI = tested on: LOX IMVI
LXFL 529 = tested on: LXFL 529
M14 = tested on: M14
MOLT-4 = tested on: MOLT-4
Malme-3M = tested on: Malme-3M
NCI-H23 = tested on: NCI-H23
NCI-H522 = tested on: NCI-H522
OVCAR-4 = tested on: OVCAR-4
OVCAR-5 = tested on: OVCAR-5
OVCAR-8 = tested on: OVCAR-8
RPMI-8226 = tested on: RPMI-8226
RXF 393 = tested on: RXF 393
RXF 631 = tested on: RXF 631
SF-268 = tested on: SF-268
SF-295 = tested on: SF-295
SF-539 = tested on: SF-539
SK-MEL-28 = tested on: SK-MEL-28
SK-MEL-2 = tested on: SK-MEL-2
SK-MEL-5 = tested on: SK-MEL-5
SK-OV-3 = tested on: SK-OV-3
SN12C = tested on: SN12C
SNB-19 = tested on: SNB-19
SNB-75 = tested on: SNB-75
SNB-78 = tested on: SNB-78
SW-620 = tested on: SW-620
TK-10 = tested on: TK-10
U-251 = tested on: U-251
UACC-257 = tested on: UACC-257
UACC-62 = tested on: UACC-62
UO-31 = tested on: UO-31
786-0 = tested on: 786-0
BT-549 = tested on: BT-549
DU-145 = tested on: DU-145
HCT-116 = tested on: HCT-116
HOP-18 = tested on: HOP-18
HOP-62 = tested on: HOP-62
HOP-92 = tested on: HOP-92
Hs-578T = tested on: Hs-578T
M19-MEL = tested on: M19-MEL
MCF7 = tested on: MCF7
MDA-MB-231 = tested on: MDA-MB-231
MDA-MB-435 = tested on: MDA-MB-435
MDA-N = tested on: MDA-N
NCI-H226 = tested on: NCI-H226
NCI-H460 = tested on: NCI-H460
NCI/ADR-RES = tested on: NCI/ADR-RES
OVCAR-3 = tested on: OVCAR-3
PC-3 = tested on: PC-3
SR = tested on: SR
T47D = tested on: T47D
XF498 = tested on: XF498

Measured: GI50

O=C(NO)c1coc2ccccc2c1=O
> 100 µM: HCT-15
inactive: A498 43.2 µM | A549 > 100 µM | ACHN 23.7 µM | CAKI-1 8.26 µM | CCRF-CEM > 100 µM | COLO 205 39.4 µM | DLD-1 > 100 µM | DMS-114 82 µM | DMS-273 > 100 µM | EKVX > 100 µM | HCC 2998 32.7 µM | HL-60 75.2 µM | HT-29 > 100 µM | IGROV-1 > 100 µM | K562 > 100 µM | KM-20L2 > 100 µM | KM12 > 100 µM | LOX IMVI > 100 µM | LXFL 529 > 100 µM | M14 67.9 µM | MOLT-4 > 100 µM | Malme-3M 88.9 µM | NCI-H23 > 100 µM | NCI-H522 > 100 µM | OVCAR-4 > 100 µM | OVCAR-5 > 100 µM | OVCAR-8 > 100 µM | RPMI-8226 > 100 µM | RXF 393 72.9 µM | RXF 631 > 100 µM | SF-268 91.2 µM | SF-295 > 100 µM | SF-539 78.5 µM | SK-MEL-28 > 100 µM | SK-MEL-2 74.3 µM | SK-MEL-5 > 100 µM | SK-OV-3 12.3 µM | SN12C > 100 µM | SNB-19 84.9 µM | SNB-75 41.9 µM | SNB-78 > 100 µM | SW-620 > 100 µM | TK-10 35.7 µM | U-251 > 100 µM | UACC-257 > 100 µM | UACC-62 > 100 µM | UO-31 86.9 µM

C=C1C(=O)OC2C(C)C3C=CC(=O)[C@@]3(C)C(OC(=O)/C(C)=C/C)C1[C@@H]2OC(C)=O (stereo partly drawn)
active: 786-0 0.231 µM | ACHN 0.589 µM | BT-549 0.28 µM | CAKI-1 0.553 µM | CCRF-CEM 0.22 µM | COLO 205 0.333 µM | DLD-1 0.5 µM | DMS-114 0.861 µM | DMS-273 0.541 µM | EKVX 0.551 µM | HCT-116 0.319 µM | HL-60 0.327 µM | HOP-92 0.551 µM | HT-29 0.486 µM | Hs-578T 0.308 µM | IGROV-1 0.78 µM | K562 0.374 µM | LOX IMVI 0.243 µM | LXFL 529 0.359 µM | M14 0.673 µM | M19-MEL 0.547 µM | MCF7 0.458 µM | MDA-MB-231 0.259 µM | MDA-MB-435 0.267 µM | MDA-N 0.252 µM | MOLT-4 0.334 µM | Malme-3M 0.221 µM | NCI-H23 0.467 µM | NCI-H460 0.3 µM | NCI-H522 0.131 µM | NCI/ADR-RES 0.237 µM | OVCAR-3 0.26 µM | OVCAR-4 0.822 µM | OVCAR-8 0.24 µM | PC-3 0.522 µM | RPMI-8226 0.486 µM | RXF 393 0.215 µM | SF-268 0.673 µM | SF-539 0.333 µM | SK-MEL-28 0.593 µM | SK-MEL-2 0.278 µM | SN12C 0.468 µM | SNB-75 1.1 µM | SNB-78 0.396 µM | SR 0.168 µM | SW-620 0.257 µM | T47D 0.336 µM | TK-10 0.452 µM | UACC-257 0.641 µM | UACC-62 0.344 µM
inactive: A498 1.49 µM | A549 1.67 µM | DU-145 1.36 µM | HCC 2998 1.75 µM | HOP-18 1.79 µM | HOP-62 1.25 µM | KM-20L2 1.51 µM | KM12 1.46 µM | NCI-H226 1.73 µM | OVCAR-5 1.88 µM | SF-295 1.43 µM | SK-MEL-5 1.46 µM | SK-OV-3 1.59 µM | SNB-19 1.89 µM | U-251 1.15 µM | UO-31 1.21 µM | XF498 1.25 µM
0.247 µM: HCT-15

Clc1ccc(-c2nnc(-c3nn(-c4ccccc4)c4nc5ccccc5nc34)o2)cc1
inactive: 786-0 > 100 µM | A549 > 100 µM | ACHN > 100 µM | CAKI-1 > 100 µM | CCRF-CEM 28.2 µM | COLO 205 > 100 µM | DLD-1 18.9 µM | DMS-114 26.1 µM | DMS-273 47.5 µM | EKVX > 100 µM | HCC 2998 > 100 µM | HCT-116 35.9 µM | HL-60 22.5 µM | HOP-18 > 100 µM | HOP-62 > 100 µM | HT-29 > 100 µM | IGROV-1 65.3 µM | K562 38.2 µM | KM-20L2 > 100 µM | KM12 > 100 µM | LOX IMVI > 100 µM | LXFL 529 27.2 µM | M14 48.3 µM | M19-MEL 70.6 µM | MOLT-4 26.9 µM | Malme-3M 84.3 µM | NCI-H226 76 µM | NCI-H23 42.4 µM | NCI-H460 > 100 µM | NCI-H522 > 100 µM | OVCAR-3 34.1 µM | OVCAR-4 28 µM | OVCAR-5 > 100 µM | OVCAR-8 82.8 µM | RPMI-8226 24.7 µM | RXF 393 93.3 µM | SF-268 69.3 µM | SF-295 > 100 µM | SF-539 > 100 µM | SK-MEL-28 > 100 µM | SK-MEL-2 > 100 µM | SK-MEL-5 12.9 µM | SK-OV-3 > 100 µM | SN12C > 100 µM | SNB-19 > 100 µM | SNB-75 95.1 µM | SNB-78 > 100 µM | SW-620 62.4 µM | TK-10 > 100 µM | U-251 84.7 µM | UACC-257 67.5 µM | UACC-62 67.8 µM | UO-31 > 100 µM | XF498 13 µM
55 µM: HCT-15

CCN(/N=C1\CC2C=CCN(C2)C(=O)Cc2c1[nH]c1ccccc21)S(=O)(=O)c1ccc(C)cc1 (stereo not drawn)
inactive: 786-0 > 100 µM | A549 49.8 µM | ACHN > 100 µM | CAKI-1 25.4 µM | CCRF-CEM > 100 µM | COLO 205 68.2 µM | DLD-1 53.3 µM | DMS-114 64.6 µM | DMS-273 62.4 µM | EKVX 40.3 µM | HCC 2998 > 100 µM | HCT-116 85.9 µM | HL-60 73.1 µM | IGROV-1 68.4 µM | K562 71.6 µM | KM-20L2 64.1 µM | KM12 69.8 µM | LOX IMVI > 100 µM | M19-MEL 76.7 µM | MOLT-4 59.4 µM | Malme-3M > 100 µM | NCI-H226 14.6 µM | NCI-H23 87.5 µM | NCI-H522 36.7 µM | OVCAR-4 51.8 µM | OVCAR-8 78 µM | RPMI-8226 63.1 µM | RXF 631 96.4 µM | SF-295 71.1 µM | SF-539 > 100 µM | SK-MEL-2 88.1 µM | SK-MEL-5 56.6 µM | SN12C 86.7 µM | SNB-19 81.8 µM | SNB-75 35.6 µM | SR 64.4 µM | SW-620 78 µM | TK-10 > 100 µM | U-251 > 100 µM | UACC-257 94.2 µM | UACC-62 38.8 µM | UO-31 39.4 µM | XF498 > 100 µM
85.9 µM: HCT-15

C1=CC(=P(c2ccccc2)(c2ccccc2)c2ccccc2)C=C1
29.7 µM: HCT-15
inactive: 786-0 10.4 µM | A549 14.1 µM | ACHN 14.2 µM | CAKI-1 17.9 µM | CCRF-CEM 3.42 µM | COLO 205 4.13 µM | DLD-1 12.5 µM | DMS-114 4.65 µM | DMS-273 9.91 µM | EKVX 24.2 µM | HCC 2998 10.6 µM | HL-60 2.77 µM | HOP-62 18.4 µM | HOP-92 6.14 µM | HT-29 10.6 µM | IGROV-1 11.5 µM | K562 3.45 µM | KM-20L2 11.3 µM | KM12 9.31 µM | LOX IMVI 6.5 µM | LXFL 529 3.63 µM | M14 8.22 µM | M19-MEL 4.04 µM | MOLT-4 5.4 µM | Malme-3M 4.75 µM | NCI-H23 11.5 µM | NCI-H460 7.83 µM | NCI-H522 3.13 µM | OVCAR-3 10.7 µM | OVCAR-4 13.9 µM | OVCAR-5 14.7 µM | OVCAR-8 4.95 µM | RPMI-8226 3.18 µM | RXF 393 13.7 µM | RXF 631 19.4 µM | SF-268 10.3 µM | SF-295 15.1 µM | SF-539 14.8 µM | SK-MEL-28 4.45 µM | SK-MEL-2 13.3 µM | SK-MEL-5 12.2 µM | SK-OV-3 18.2 µM | SN12C 10.3 µM | SNB-19 4.67 µM | SNB-75 3.37 µM | SNB-78 7.5 µM | SW-620 16.1 µM | TK-10 20.7 µM | UACC-257 7.48 µM | UACC-62 6.25 µM | UO-31 15.9 µM | XF498 2.91 µM
